From US20240059671A1, “TYROSINE KINASE 2 (TYK2) DEGRADATION COMPOUNDS AND METHODS OF USE” (CULLGEN (SHANGHAI), INC., priority 2020, published 2024)

Biological target: TYK2 (Homo sapiens, UniProt P29597)
Assay: TYK2 protein degradation in MOLT-4 cells by immunoblotting
Assay type: cell-based
Parameters: endogenous in cells; host or cells: MOLT-4
Conditions: MOLT-4 cells, 24 hours
Outline: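 MOLT-4 cells were exposed to compounds at 0.5 and 5 μM for 24 h, then lysed in RIPA buffer with protease and phosphatase inhibitors. TYK2 was detected by SDS-PAGE immunoblot with chemiluminescence, and band densitometry gave percent degradation.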

Sequence of TYK2 (P29597 whole entry): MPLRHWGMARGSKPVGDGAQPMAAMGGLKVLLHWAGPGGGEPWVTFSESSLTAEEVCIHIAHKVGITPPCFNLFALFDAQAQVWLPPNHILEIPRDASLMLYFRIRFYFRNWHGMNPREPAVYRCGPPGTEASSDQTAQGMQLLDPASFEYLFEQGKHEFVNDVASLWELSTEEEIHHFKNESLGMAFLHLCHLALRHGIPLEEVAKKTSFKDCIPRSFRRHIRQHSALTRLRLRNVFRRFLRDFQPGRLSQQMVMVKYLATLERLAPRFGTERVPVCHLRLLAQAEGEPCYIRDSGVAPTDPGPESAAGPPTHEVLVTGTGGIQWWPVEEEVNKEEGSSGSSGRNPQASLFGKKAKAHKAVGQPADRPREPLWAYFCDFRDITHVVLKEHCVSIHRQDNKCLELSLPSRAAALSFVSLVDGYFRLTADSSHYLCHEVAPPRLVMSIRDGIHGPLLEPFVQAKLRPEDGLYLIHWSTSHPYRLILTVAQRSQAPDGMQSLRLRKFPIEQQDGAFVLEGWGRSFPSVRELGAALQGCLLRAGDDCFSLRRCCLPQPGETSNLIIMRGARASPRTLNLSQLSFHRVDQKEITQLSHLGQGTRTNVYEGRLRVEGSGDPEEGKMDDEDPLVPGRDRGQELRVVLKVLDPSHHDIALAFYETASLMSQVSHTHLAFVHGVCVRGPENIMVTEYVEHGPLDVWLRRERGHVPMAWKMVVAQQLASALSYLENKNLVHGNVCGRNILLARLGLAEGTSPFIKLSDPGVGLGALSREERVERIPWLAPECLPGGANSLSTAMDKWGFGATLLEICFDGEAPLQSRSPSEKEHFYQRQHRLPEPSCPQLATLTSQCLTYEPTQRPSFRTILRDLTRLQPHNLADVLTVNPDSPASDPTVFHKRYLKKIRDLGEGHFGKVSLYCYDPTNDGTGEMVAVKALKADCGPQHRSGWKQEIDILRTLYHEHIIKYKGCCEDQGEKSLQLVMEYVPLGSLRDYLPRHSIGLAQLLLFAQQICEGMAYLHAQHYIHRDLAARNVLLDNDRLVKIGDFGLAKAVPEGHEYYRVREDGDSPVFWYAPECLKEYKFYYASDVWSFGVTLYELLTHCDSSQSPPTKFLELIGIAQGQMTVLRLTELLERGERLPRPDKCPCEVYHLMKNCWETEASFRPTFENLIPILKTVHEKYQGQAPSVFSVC

TYK2 Degradation (MOLT-4, 0.5 μM)	TYK2 Degradation (MOLT-4, 5 μM)	Structure (SMILES)
C (C: ≤20% TYK2 degradation)	C (C: ≤20% TYK2 degradation)	CNC(=O)c1nnc(NC(=O)CNC(=O)CCCCCNC(=O)C[C@H](NC(=O)[C@@H]2C[C@@H](O)CN2C(=O)[C@@H](NC(=O)C2(F)CC2)C(C)(C)C)c2ccc(-c3scnc3C)cc2)cc1Nc1cccc(-c2ncn(C)n2)c1OC [CPD-090, 6-(2-(6-((S)-3-((2S,4R)-1-((S)-2-(1-Fluorocyclopropane-1-carboxamido)-3,3-dimethylbutanoyl)-4-hydroxypyrrolidine-2-carboxamido)-3-(4-(4-methylthiazol-5-yl)phenyl)propanamido)hexanamido)acetamido)-4-((2-methoxy-3-(1-methyl-1H-1,2,4-triazol-3-yl)phenyl)amino)-N-methylpyridazine-3-carboxamide]
C (C: ≤20% TYK2 degradation)	C (C: ≤20% TYK2 degradation)	CNC(=O)c1nnc(Nc2ccc(N3CCN(C(=O)CCCCC(=O)N[C@H](C(=O)N4C[C@H](O)C[C@H]4C(=O)NCc4ccc(-c5scnc5C)cc4)C(C)(C)C)CC3)cn2)cc1Nc1cccc(-c2ncn(C)n2)c1OC [CPD-098, 6-((5-(4-(6-(((S)-1-((2S,4R)-4-Hydroxy-2-((4-(4-methylthiazol-5-yl)benzyl)carbamoyl)pyrrolidin-1-yl)-3,3-dimethyl-1-oxobutan-2-yl)amino)-6-oxohexanoyl)piperazin-1-yl)pyridin-2-yl)amino)-4-((2-methoxy-3-(1-methyl-1H-1,2,4-triazol-3-yl)phenyl)amino)-N-methylpyridazine-3-carboxamide]

The next lines start with the molecule.

Structure (SMILES)	TYK2 Degradation (MOLT-4, 0.5 μM)	TYK2 Degradation (MOLT-4, 5 μM)
CNC(=O)c1nnc(NC(=O)CNC(=O)CCCCCCNC(=O)C[C@H](NC(=O)[C@@H]2C[C@@H](O)CN2C(=O)[C@@H](NC(=O)C2(F)CC2)C(C)(C)C)c2ccc(-c3scnc3C)cc2)cc1Nc1cccc(-c2ncn(C)n2)c1OC [CPD-091, 6-(2-(7-((S)-3-((2S,4R)-1-((S)-2-(1-Fluorocyclopropane-1-carboxamido)-3,3-dimethylbutanoyl)-4-hydroxypyrrolidine-2-carboxamido)-3-(4-(4-methylthiazol-5-yl)phenyl)propanamido)heptanamido)acetamido)-4-((2-methoxy-3-(1-methyl-1H-1,2,4-triazol-3-yl)phenyl)amino)-N-methylpyridazine-3-carboxamide]	C (C: ≤20% TYK2 degradation)	C (C: ≤20% TYK2 degradation)
CNC(=O)c1nnc(NC(=O)CNC(=O)CCCCCCCNC(=O)C[C@H](NC(=O)[C@@H]2C[C@@H](O)CN2C(=O)[C@@H](NC(=O)C2(F)CC2)C(C)(C)C)c2ccc(-c3scnc3C)cc2)cc1Nc1cccc(-c2ncn(C)n2)c1OC [CPD-092, 6-(2-(8-((S)-3-((2S,4R)-1-((S)-2-(1-Fluorocyclopropane-1-carboxamido)-3,3-dimethylbutanoyl)-4-hydroxypyrrolidine-2-carboxamido)-3-(4-(4-methylthiazol-5-yl)phenyl)propanamido)octanamido)acetamido)-4-((2-methoxy-3-(1-methyl-1H-1,2,4-triazol-3-yl)phenyl)amino)-N-methylpyridazine-3-carboxamide]	C (C: ≤20% TYK2 degradation)	C (C: ≤20% TYK2 degradation)
CNC(=O)c1nnc(NC(=O)CNC(=O)CCCCCCCCNC(=O)C[C@H](NC(=O)[C@@H]2C[C@@H](O)CN2C(=O)[C@@H](NC(=O)C2(F)CC2)C(C)(C)C)c2ccc(-c3scnc3C)cc2)cc1Nc1cccc(-c2ncn(C)n2)c1OC [CPD-093, 6-(2-(9-((S)-3-((2S,4R)-1-((S)-2-(1-Fluorocyclopropane-1-carboxamido)-3,3-dimethylbutanoyl)-4-hydroxypyrrolidine-2-carboxamido)-3-(4-(4-methylthiazol-5-yl)phenyl)propanamido)nonanamido)acetamido)-4-((2-methoxy-3-(1-methyl-1H-1,2,4-triazol-3-yl)phenyl)amino)-N-methylpyridazine-3-carboxamide]	C (C: ≤20% TYK2 degradation)	C (C: ≤20% TYK2 degradation)
CNC(=O)c1nnc(NC(=O)CNC(=O)CCCCCCCCCNC(=O)C[C@H](NC(=O)[C@@H]2C[C@@H](O)CN2C(=O)[C@@H](NC(=O)C2(F)CC2)C(C)(C)C)c2ccc(-c3scnc3C)cc2)cc1Nc1cccc(-c2ncn(C)n2)c1OC [CPD-094, 6-(2-(10-((S)-3-((2S,4R)-1-((S)-2-(1-Fluorocyclopropane-1-carboxamido)-3,3-dimethylbutanoyl)-4-hydroxypyrrolidine-2-carboxamido)-3-(4-(4-methylthiazol-5-yl)phenyl)propanamido)decanamido)acetamido)-4-((2-methoxy-3-(1-methyl-1H-1,2,4-triazol-3-yl)phenyl)amino)-N-methylpyridazine-3-carboxamide]	B (B: <60% TYK2 degradation, and >20% TYK2 degradation)	B (B: <60% TYK2 degradation, and >20% TYK2 degradation)
CNC(=O)c1nnc(NC(=O)CNC(=O)CCCCCCCCCCNC(=O)C[C@H](NC(=O)[C@@H]2C[C@@H](O)CN2C(=O)[C@@H](NC(=O)C2(F)CC2)C(C)(C)C)c2ccc(-c3scnc3C)cc2)cc1Nc1cccc(-c2ncn(C)n2)c1OC [CPD-095, 6-(2-(11-((S)-3-((2S,4R)-1-((S)-2-(1-Fluorocyclopropane-1-carboxamido)-3,3-dimethylbutanoyl)-4-hydroxypyrrolidine-2-carboxamido)-3-(4-(4-methylthiazol-5-yl)phenyl)propanamido)undecanamido)acetamido)-4-((2-methoxy-3-(1-methyl-1H-1,2,4-triazol-3-yl)phenyl)amino)-N-methylpyridazine-3-carboxamide]	B (B: <60% TYK2 degradation, and >20% TYK2 degradation)	A (A: ≥60% TYK2 degradation)
CNC(=O)c1nnc(Nc2ccc(N3CCN(C(=O)CCC(=O)N[C@H](C(=O)N4C[C@H](O)C[C@H]4C(=O)NCc4ccc(-c5scnc5C)cc4)C(C)(C)C)CC3)cn2)cc1Nc1cccc(-c2ncn(C)n2)c1OC [CPD-096, 6-((5-(4-(4-(((S)-1-((2S,4R)-4-Hydroxy-2-((4-(4-methylthiazol-5-yl)benzyl)carbamoyl)pyrrolidin-1-yl)-3,3-dimethyl-1-oxobutan-2-yl)amino)-4-oxobutanoyl)piperazin-1-yl)pyridin-2-yl)amino)-4-((2-methoxy-3-(1-methyl-1H-1,2,4-triazol-3-yl)phenyl)amino)-N-methylpyridazine-3-carboxamide]	B (B: <60% TYK2 degradation, and >20% TYK2 degradation)	C (C: ≤20% TYK2 degradation)
CNC(=O)c1nnc(Nc2ccc(N3CCN(C(=O)CCCC(=O)N[C@H](C(=O)N4C[C@H](O)C[C@H]4C(=O)NCc4ccc(-c5scnc5C)cc4)C(C)(C)C)CC3)cn2)cc1Nc1cccc(-c2ncn(C)n2)c1OC [CPD-097, 6-((5-(4-(5-(((S)-1-((2S,4R)-4-Hydroxy-2-((4-(4-methylthiazol-5-yl)benzyl)carbamoyl)pyrrolidin-1-yl)-3,3-dimethyl-1-oxobutan-2-yl)amino)-5-oxopentanoyl)piperazin-1-yl)pyridin-2-yl)amino)-4-((2-methoxy-3-(1-methyl-1H-1,2,4-triazol-3-yl)phenyl)amino)-N-methylpyridazine-3-carboxamide]	B (B: <60% TYK2 degradation, and >20% TYK2 degradation)	C (C: ≤20% TYK2 degradation)
CNC(=O)c1nnc(Nc2ccc(N3CCN(C(=O)CCCCCC(=O)N[C@H](C(=O)N4C[C@H](O)C[C@H]4C(=O)NCc4ccc(-c5scnc5C)cc4)C(C)(C)C)CC3)cn2)cc1Nc1cccc(-c2ncn(C)n2)c1OC [CPD-099, 6-((5-(4-(7-(((S)-1-((2S,4R)-4-hydroxy-2-((4-(4-methylthiazol-5-yl)benzyl)carbamoyl)pyrrolidin-1-yl)-3,3-dimethyl-1-oxobutan-2-yl)amino)-7-oxoheptanoyl)piperazin-1-yl)pyridin-2-yl)amino)-4-((2-methoxy-3-(1-methyl-JH-1,2,4-triazol-3-yl)phenyl)amino)-N-methylpyridazine-3-carboxamide]	A (A: ≥60% TYK2 degradation)	B (B: <60% TYK2 degradation, and >20% TYK2 degradation)
CNC(=O)c1nnc(Nc2ccc(N3CCN(C(=O)CCCCCCC(=O)N[C@H](C(=O)N4C[C@H](O)C[C@H]4C(=O)NCc4ccc(-c5scnc5C)cc4)C(C)(C)C)CC3)cn2)cc1Nc1cccc(-c2ncn(C)n2)c1OC [CPD-100, 6-((5-(4-(8-(((S)-1-((2S,4R)-4-hydroxy-2-((4-(4-methylthiazol-5-yl)benzyl)carbamoyl)pyrrolidin-1-yl)-3,3-dimethyl-1-oxobutan-2-yl)amino)-8-oxooctanoyl)piperazin-1-yl)pyridin-2-yl)amino)-4-((2-methoxy-3-(1-methyl-1H-1,2,4-triazol-3-yl)phenyl)amino)-N-methylpyridazine-3-carboxamide]	A (A: ≥60% TYK2 degradation)	B (B: <60% TYK2 degradation, and >20% TYK2 degradation)
CNC(=O)c1nnc(NC(=O)CNC(=O)COc2cc(-c3scnc3C)ccc2CNC(=O)[C@@H]2C[C@@H](O)CN2C(=O)[C@@H](NC(=O)C2(F)CC2)C(C)(C)C)cc1Nc1cccc(-c2ncn(C)n2)c1OC [CPD-101, 6-(2-(2-(2-(((2S,4R)-1-((S)-2-(1-Fluorocyclopropane-1-carboxamido)-3,3-dimethylbutanoyl)-4-hydroxypyrrolidine-2-carboxamido)methyl)-5-(4-methylthiazol-5-yl)phenoxy)acetamido)acetamido)-4-((2-methoxy-3-(1-methyl-1H-1,2,4-triazol-3-yl)phenyl)amino)-N-methylpyridazine-3-carboxamide]	C (C: ≤20% TYK2 degradation)	C (C: ≤20% TYK2 degradation)
